The results in this text go back to ChEMBL document CHEMBL1136210, “Bone-targeted pyrido[2,3-d]pyrimidin-7-ones: potent inhibitors of Src tyrosine kinase as novel antiresorptive agents” (Bioorg Med Chem Lett, 2003).

The species entered for one experiment is Oryctolagus cuniculus. Briefly: Inhibition of rabbit-osteoclast mediated resorption of dentine slices.
The nature of experiment [1]: Compound was tested for toxicity by the presence of tartrate resistant acid phosphatase (TRAP)-positive cell; Normal. It is filed as functional.
The target of experiment [2] is Proto-oncogene tyrosine-protein kinase Src (Homo sapiens, UniProt P12931). Briefly: Inhibition of Src protein tyrosine kinase.
Chain of Proto-oncogene tyrosine-protein kinase Src (P12931 2-536 limits assumed): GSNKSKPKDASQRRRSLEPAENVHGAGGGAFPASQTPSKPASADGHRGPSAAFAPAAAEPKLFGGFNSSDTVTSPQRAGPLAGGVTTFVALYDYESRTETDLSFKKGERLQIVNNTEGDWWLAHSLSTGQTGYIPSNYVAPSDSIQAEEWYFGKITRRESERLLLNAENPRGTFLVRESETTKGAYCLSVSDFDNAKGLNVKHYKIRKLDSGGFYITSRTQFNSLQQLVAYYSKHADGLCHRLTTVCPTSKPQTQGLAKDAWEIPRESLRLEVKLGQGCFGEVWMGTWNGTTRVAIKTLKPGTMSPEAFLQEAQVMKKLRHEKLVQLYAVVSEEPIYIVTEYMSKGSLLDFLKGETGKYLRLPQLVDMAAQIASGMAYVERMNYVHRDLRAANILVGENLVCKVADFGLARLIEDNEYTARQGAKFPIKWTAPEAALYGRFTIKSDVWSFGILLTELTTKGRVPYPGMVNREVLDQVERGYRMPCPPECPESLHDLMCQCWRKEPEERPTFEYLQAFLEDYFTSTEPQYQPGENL

`CN(C)CCCn1c(=O)c(-c2c(Cl)cccc2Cl)cc2cnc(Nc3ccc(P(=O)(O)CP(=O)(O)O)cc3)nc21`: in the experiment listed under Oryctolagus cuniculus, the half-maximal inhibitory concentration (IC50) (commonly the concentration that inhibits the measured activity by half) was 0.8 µM. Also, in experiment [1], the TRAP staining result was “Not toxic”.

The compound `Cn1c(=O)c(-c2c(Cl)cccc2Cl)cc2cnc(Nc3ccccc3)nc21` gave an IC50 in experiment [2] of 0.016 µM.

On to `Cn1c(=O)c(-c2c(Cl)cccc2Cl)cc2cnc(Nc3ccc(P(=O)(O)CP(=O)(O)O)cc3)nc21`, for which, in the experiment listed under Oryctolagus cuniculus, the half-maximal inhibitory concentration (IC50) is 3 µM. In addition, the TRAP staining result in experiment [1] is “Not toxic”.

Turning to `Cn1c(=O)c(-c2c(Cl)cccc2Cl)cc2cnc(Nc3cccc(P(=O)(O)CP(=O)(O)O)c3)nc21`, the IC50 in the experiment listed under Oryctolagus cuniculus amounted to 4 µM. Moreover, in experiment [1], the TRAP staining entry is “Not toxic”.
